Measured values as given in ChEMBL document CHEMBL4840359, “N-Terminus to Arginine Side-Chain Cyclization of Linear Peptidic Neuropeptide Y Y4 Receptor Ligands Results in Picomolar Binding Constants” (J Med Chem, 2021).

Experiments:
[1] = target: T1, Neuropeptide Y receptor type 4 (Homo sapiens, UniProt P50391); assay: Displacement of [3H]UR-KK200 from human neuropeptide Y Y4 receptor expressed in CHO-mtAEQ cells co-expressing Gqi5 measured after 90 mins by scintillation counting analysis; format: cell-based
T1 sequence (P50391 whole entry): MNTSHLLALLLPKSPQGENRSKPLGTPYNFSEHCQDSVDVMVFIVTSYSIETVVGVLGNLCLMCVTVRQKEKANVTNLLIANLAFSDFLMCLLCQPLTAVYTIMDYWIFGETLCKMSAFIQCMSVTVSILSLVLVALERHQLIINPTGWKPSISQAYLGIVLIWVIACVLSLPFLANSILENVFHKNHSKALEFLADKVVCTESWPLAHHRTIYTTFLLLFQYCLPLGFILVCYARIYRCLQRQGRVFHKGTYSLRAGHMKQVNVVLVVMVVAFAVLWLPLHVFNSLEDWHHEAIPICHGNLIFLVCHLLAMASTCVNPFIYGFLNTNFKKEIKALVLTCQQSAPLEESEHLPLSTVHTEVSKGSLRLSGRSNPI

[2] = target: T1, Neuropeptide Y receptor type 4; assay: Displacement of [3H]UR-KK200 from human neuropeptide Y Y4 receptor expressed in CHO-mtAEQ cells co-expressing Gqi5 assessed as fold change in affinity measured after 90 mins by scintillation counting analysis relative to Ac-Arg-Tyr-Arg-Leu-Arg-Tyr-NH2; format: cell-based; conditions: filed as agonist
[3] = target: T2, Neuropeptide Y receptor type 1 (Homo sapiens, UniProt P25929); assay: Displacement of [3H]UR-MK299 from human neuropeptide Y Y1 receptor in human SK-N-MC cells measured after 90 mins by scintillation counting analysis; format: cell-based
T2 sequence (P25929 whole entry): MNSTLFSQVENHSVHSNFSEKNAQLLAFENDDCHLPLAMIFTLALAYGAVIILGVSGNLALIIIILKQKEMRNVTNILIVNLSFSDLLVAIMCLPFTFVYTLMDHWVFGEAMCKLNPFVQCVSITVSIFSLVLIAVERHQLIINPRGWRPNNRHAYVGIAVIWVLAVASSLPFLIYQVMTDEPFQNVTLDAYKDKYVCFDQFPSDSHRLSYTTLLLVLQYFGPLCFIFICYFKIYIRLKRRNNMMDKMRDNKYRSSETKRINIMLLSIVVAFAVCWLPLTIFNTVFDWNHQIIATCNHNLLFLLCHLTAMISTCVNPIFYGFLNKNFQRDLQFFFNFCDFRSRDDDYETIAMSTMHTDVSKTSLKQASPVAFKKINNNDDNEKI

[4] = target: T3, Neuropeptide Y receptor type 2 (Homo sapiens, UniProt P49146); assay: Displacement of [3H]UR-MK299 from human neuropeptide Y Y2 receptor expressed in CHO cells measured after 90 mins by scintillation counting analysis; format: cell-based
T3 sequence (P49146 whole entry): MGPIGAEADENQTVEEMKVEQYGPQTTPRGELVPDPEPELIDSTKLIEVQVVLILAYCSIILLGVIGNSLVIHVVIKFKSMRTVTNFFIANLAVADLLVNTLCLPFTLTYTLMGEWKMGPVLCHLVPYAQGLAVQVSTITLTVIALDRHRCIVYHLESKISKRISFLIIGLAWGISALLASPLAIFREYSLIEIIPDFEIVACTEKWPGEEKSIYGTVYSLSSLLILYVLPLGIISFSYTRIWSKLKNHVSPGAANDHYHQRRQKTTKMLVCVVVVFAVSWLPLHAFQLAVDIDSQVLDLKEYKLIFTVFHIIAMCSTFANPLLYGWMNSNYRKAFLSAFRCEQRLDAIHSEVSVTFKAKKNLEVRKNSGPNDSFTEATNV

[5] = target: T4, Neuropeptide Y receptor type 5 (Homo sapiens, UniProt Q15761); assay: Displacement of [3H]propionyl-pNPY from human neuropeptide Y Y5 receptor in human HEC-1B cells measured after 90 mins by scintillation counting analysis; format: cell-based, HEC-1B cell line
T4 sequence (Q15761 whole entry): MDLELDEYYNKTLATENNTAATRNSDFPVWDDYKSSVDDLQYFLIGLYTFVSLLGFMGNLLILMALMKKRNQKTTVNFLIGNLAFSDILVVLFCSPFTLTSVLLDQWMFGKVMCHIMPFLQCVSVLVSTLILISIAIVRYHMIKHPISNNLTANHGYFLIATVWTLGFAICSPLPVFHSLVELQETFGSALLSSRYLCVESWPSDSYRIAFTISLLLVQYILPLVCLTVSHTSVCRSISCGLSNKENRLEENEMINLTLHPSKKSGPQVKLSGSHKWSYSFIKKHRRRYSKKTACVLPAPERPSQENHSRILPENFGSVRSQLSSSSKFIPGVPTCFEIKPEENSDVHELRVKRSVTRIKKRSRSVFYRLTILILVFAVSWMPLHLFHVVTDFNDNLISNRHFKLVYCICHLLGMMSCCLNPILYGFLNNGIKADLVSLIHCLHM

Homo sapiens [6] = species on record: Homo sapiens; assay: (§1) Selectivity ratio, Ki for displacement of [3H]UR-MK299 from human neuropeptide Y Y1 receptor in human SK-N-MC cells measured after 90 mins by scintillation counting analysis to Ki for displacement of [3H]UR-KK200 from human neuropeptide Y Y4 receptor expressed in CHO-mtAEQ cells co-expressing Gqi5 measured after 90 mins by scintillation counting analysis; format: cell-based
Homo sapiens [7] = species on record: Homo sapiens; assay: Selectivity ratio, Ki for displacement of [3H]UR-MK299 from human neuropeptide Y Y2 receptor expressed in CHO cells measured after 90 mins by scintillation counting analysis to Ki for displacement of [3H]UR-KK200 from human neuropeptide Y Y4 receptor expressed in CHO-mtAEQ cells co-expressing Gqi5 measured after 90 mins by scintillation counting analysis; format: cell-based
Homo sapiens [8] = species on record: Homo sapiens; assay: as §1, with “[3H]propionyl-pNPY” for “[3H]UR-MK299”, “Y5” for “Y1”, “HEC-1B” for “SK-N-MC”; format: cell-based
[9] = target: T1, Neuropeptide Y receptor type 4; assay: Agonist activity at human neuropeptide Y Y4 receptor expressed in HEK293T-ARRB1 cells assessed as stimulation of beta-arrestin 1 recruitment by multimode plate reader; format: functional, cell-based; conditions: read-out: EC50
[10] = target: T1, Neuropeptide Y receptor type 4; assay: Intrinsic activity at human neuropeptide Y Y4 receptor expressed in HEK293T-ARRB1 cells assessed as stimulation of beta-arrestin 1 recruitment by multimode plate reader relative to hPP; format: functional, cell-based
[11] = target: T1, Neuropeptide Y receptor type 4; assay: Agonist activity at human neuropeptide Y Y4 receptor expressed in HEK293T-ARRB2 cells assessed as stimulation of beta-arrestin 2 recruitment by multimode plate reader; format: functional, cell-based
[12] = target: T1, Neuropeptide Y receptor type 4; assay: Intrinsic activity at human neuropeptide Y Y4 receptor expressed in HEK293T-ARRB2 cells assessed as stimulation of beta-arrestin 2 recruitment by multimode plate reader relative to hPP; format: functional, cell-based
[13] = target: T1, Neuropeptide Y receptor type 4; assay: Agonist activity at human neuropeptide Y Y4 receptor expressed in CHO-mtAEQ cells co-expressing Gqi5 by calcium aequorin assay; format: functional, cell-based
[14] = target: T1, Neuropeptide Y receptor type 4; assay: Intrinsic activity at human neuropeptide Y Y4 receptor expressed in CHO-mtAEQ cells co-expressing Gqi5 by calcium aequorin assay; format: functional, cell-based
[15] = target: T1, Neuropeptide Y receptor type 4; assay: Agonist activity at human neuropeptide Y Y4 receptor expressed in HEK293T cells co-expressing CRE-controlled gene reporter firefly luciferase assessed as relative luminescence measured after 15 mins; format: functional, cell-based
[16] = target: T1, Neuropeptide Y receptor type 4; assay: Intrinsic activity at human neuropeptide Y Y4 receptor expressed in HEK293T cells co-expressing CRE-controlled gene reporter firefly luciferase assessed as relative luminescence measured after 15 mins relative to hPP; format: functional, cell-based
[17] = Stability in human plasma assessed as intact peptide measured after 30 mins at 37 degC by RP-HPLC analysis; format: ADME, cell-free; conditions: read-out: Stability
[18] = Stability in human plasma assessed as intact peptide measured after 2 hr at 37 degC by RP-HPLC analysis; format: ADME, cell-free; conditions: read-out: Stability
[19] = Stability in human plasma assessed as intact peptide measured after 6 hr at 37 degC by RP-HPLC analysis; format: ADME, cell-free; conditions: read-out: Stability
[20] = Stability in human plasma assessed as intact peptide measured after 24 hrs at 37 degC by RP-HPLC analysis; format: ADME, cell-free; conditions: read-out: Stability
[21] = Stability in human plasma assessed as half life at 37 degC by RP-HPLC analysis; format: ADME, cell-free
[22] = Stability in human plasma assessed as intact peptide in presence of rami-pril measured at 50 uM after 24 hrs at 37 degC by LC-HRMS analysis; format: ADME, cell-free
[23] = Stability of the compound in pH 7.4 PBS buffer measured up to 48 hrs by reversed-phase HPLC analysis; format: physicochemical; conditions: pH 7.4, 48 h
[24] = Stability in human plasma assessed as intact peptide measured after 1 hr at 37 degC by RP-HPLC analysis; format: ADME, cell-free; conditions: read-out: Stability
[25] = Inhibition of ACE (unknown origin); parameters: species or system Homo sapiens

SMILES | Ki ([1]; read-out: Ki) | fold change (FC) [2] | Ki ([3]; read-out: pKi (converted)) | Ki ([4]; read-out: Ki) | Ki ([4]; read-out: pKi (converted)) | Ki ([5]; read-out: pKi (converted)) | Selectivity ratio (Homo sapiens [6]) | Selectivity ratio (Homo sapiens [7]) | Selectivity ratio (Homo sapiens [8]) | EC50 [9] | Intrinsic activity [10] | EC50 [11] | Intrinsic activity [12] | EC50 [13] | Intrinsic activity [14] | Intrinsic activity [16] | remaining at 0.5 h [17] | remaining at 2 h [18] | remaining at 6 h [19] | half-life [21] | further results
CC(C)C[C@H](NC(=O)[C@H](CCCNC(=N)NC(=O)NCCCCN)NC(=O)[C@H](Cc1ccc(O)cc1)NC(=O)[C@H](CCCNC(=N)N)NC(=O)CCC(=O)O)C(=O)N[C@@H](CCCNC(=N)N)C(=O)N[C@@H](Cc1ccc(O)cc1)C(N)=O | 13 nM | 2.6 | > 10000 nM | > 10000 nM | > 10000 nM | > 10000 nM | > 7600 | > 7600 | > 7600 | 160 nM | 75% | 141 nM | 83% | 204 nM | 70% | 88% | > 99% | 91% | 49% | 5.9 h | Ki ([1]; read-out: pKi (converted)): 1.26 nM; Ki ([3]; sk-n-mc, read-out: Ki): > 10000 nM; EC50 [15]: 17 nM; remaining at 24 h [20]: 3%; Stability [22]: Stable
CC(C)C[C@H](NC(=O)[C@@H]1CCCNC(=N)NC(=O)NCCCCNC(=O)CCC(=O)N[C@@H](CCCNC(=N)N)C(=O)N[C@@H](Cc2c[nH]c3ccccc23)C(=O)N1)C(=O)N[C@@H](CCCNC(=N)N)C(=O)N[C@@H](Cc1ccc(O)cc1)C(N)=O | 0.033 nM | 103 | > 10000 nM | > 10000 nM | > 10000 nM | > 1000 nM | > 300000 | > 300 | > 90000 | 1 nM | 98% | 1.66 nM | 80% | 1 nM | 84% | 95% | 94% | 57% | 19% | 2.6 h | Ki ([3]; sk-n-mc, read-out: Ki): > 10000 nM; Ki ([5]; read-out: Ki): > 3000 nM; EC50 [15]: 1.41 nM; Stability [23]: Stable; remaining at 1 h [24]: 87%; Stability [22]: Stable
CCOC(=O)[C@H](CCc1ccccc1)N[C@@H](C)C(=O)N1[C@H](C(=O)O)C[C@@H]2CCC[C@@H]21 |  |  |  |  |  |  |  |  |  |  |  |  |  |  |  |  |  |  |  |  | pIC50 [25]: 7.6
CC(C)C[C@H](NC(=O)[C@@H]1CCCNC(=N)NC(=O)NCCCCNC(=O)CCC(=O)N[C@@H](CCCNC(=N)N)C(=O)N[C@@H](Cc2ccc(O)cc2)C(=O)N1)C(=O)N[C@@H](CCCNC(=N)N)C(=O)N[C@@H](Cc1ccc(O)cc1)C(N)=O | 0.048 nM | 71 | > 3160 nM | > 10000 nM | > 10000 nM | > 1000 nM | > 60000 | > 200 | > 60000 | 3.6 nM | 68% | 1.58 nM | 73% | 2.69 nM | 82% | 89% | > 99% | 52% | 3% | 1.9 h | Ki ([1]; read-out: pKi (converted)): 0.0437 nM; Ki ([3]; read-out: Ki): > 3000 nM; Ki ([5]; read-out: Ki): > 3000 nM; Stability [23]: Stable; remaining at 1 h [24]: 85%; Stability [22]: Stable
CC(C)C[C@H](NC(=O)[C@H](CCCNC(=N)NC(=O)NCCCCN)NC(=O)[C@H](Cc1c[nH]c2ccccc12)NC(=O)[C@H](CCCNC(=N)N)NC(=O)CCC(=O)O)C(=O)N[C@@H](CCCNC(=N)N)C(=O)N[C@@H](Cc1ccc(O)cc1)C(N)=O | 2.1 nM | 1.6 | > 10000 nM | > 3000 nM | > 3160 nM | > 10000 nM | > 4700 | > 1400 | > 4700 | 120 nM | 67% | 162 nM | 76% | 105 nM | 67% | 95% | 94% | 87% | 67% | 7.9 h | Ki ([1]; read-out: pKi (converted)): 1.95 nM; Ki ([3]; sk-n-mc, read-out: Ki): > 10000 nM; EC50 [15]: 12 nM; remaining at 24 h [20]: 3%; Stability [22]: Stable
